{
  "source": "ChEMBL document CHEMBL4359918",
  "about": "“Discovery of tissue selective liver X receptor agonists for the treatment of atherosclerosis without causing hepatic lipogenesis” (Eur J Med Chem, 2019)",
  "key": {"Mus musculus [1]": {"tested_on": "Mus musculus", "assay": "Induction of hepatic steatosis in C57BL/6 mouse assessed as accumulation of serum triglyceride level at 50 mg/kg/day, ig administered for 7 days", "format": "organism-based", "settings": "in vivo, po, 168 h"}, "[2]": {"assay": "Toxicity in high fat diet-induced C57BL/6 mouse model of hypercholesterolemia assessed as reduction in liver weight at 20 mg/kg, po administered for 12 weeks by H and E staining-based assay", "format": "organism-based", "settings": "in vivo, 2016 h"}, "Mus musculus [3]": {"tested_on": "Mus musculus", "assay": "Increase in hepatic triglyceride level in high fat diet-induced C57BL/6 mouse model of hypercholesterolemia at 20 mg/kg, po administered for 12 weeks", "format": "ADME, organism-based", "settings": "in vivo, 2016 h"}, "Mus musculus [4]": {"tested_on": "Mus musculus", "assay": "Induction of hepatic steatosis in C57BL/6 mouse assessed as accumulation of hepatic triglyceride level at 50 mg/kg/day, ig administered for 7 days", "format": "organism-based", "settings": "in vivo, po, 168 h"}, "[5]": {"assay": "Selectivity index, ratio of compound effect for agonist activity at human LXRalpha to compound effect for agonist activity at […]"}, "[6]": {"assay": "Agonist activity at LXR in C57BL/6 mouse PBMC assessed as increase in sREBP-1c mRNA expression at 10 uM incubated for 48 hrs by qPCR analysis"}, "[7]": {"assay": "Agonist activity at LXR in mouse RAW264.7 cells assessed as increase in sREBP-1c mRNA expression at 10 uM incubated for 48 hrs by qPCR analysis", "format": "cell-based", "settings": "raw264.7, 48 h"}, "[8]": {"assay": "Agonist activity at LXR in mouse 3T3L1 preadipocytes assessed as increase in sREBP-1c mRNA expression at 10 uM by qPCR analysis", "format": "cell-based"}, "[9]": {"molecular_target": "T1, LXRalpha (Oxysterols receptor LXR-alpha) (Homo sapiens, UniProt Q13133)", "T1 sequence (Q13133 whole entry)": "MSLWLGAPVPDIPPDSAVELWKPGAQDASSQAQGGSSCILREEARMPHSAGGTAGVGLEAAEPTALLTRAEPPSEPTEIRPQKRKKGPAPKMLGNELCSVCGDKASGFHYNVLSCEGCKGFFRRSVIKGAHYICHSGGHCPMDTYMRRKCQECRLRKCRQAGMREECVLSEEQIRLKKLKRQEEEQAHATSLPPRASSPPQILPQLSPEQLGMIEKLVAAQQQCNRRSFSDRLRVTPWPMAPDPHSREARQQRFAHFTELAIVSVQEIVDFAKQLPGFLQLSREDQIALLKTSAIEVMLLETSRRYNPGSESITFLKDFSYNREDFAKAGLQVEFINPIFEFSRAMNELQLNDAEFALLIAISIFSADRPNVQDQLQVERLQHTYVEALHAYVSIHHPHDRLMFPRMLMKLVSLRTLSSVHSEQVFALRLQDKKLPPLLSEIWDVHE", "assay": "Agonist activity at human LXRalpha transfected in HEK293T cells at 10 uM incubated for 20 hrs by luciferase reporter gene assay relative to control", "format": "cell-based", "settings": "HEK293T cells transfected with human LXRalpha, read-out: FC"}, "[10]": {"assay": "Agonist activity at LXR in mouse 3T3L1 preadipocytes assessed as increase in ABCA1 mRNA expression at 10 uM by qPCR analysis", "format": "cell-based"}, "Mus musculus [11]": {"organism": "Mus musculus", "assay": "Agonist activity at LXR in C57BL/6 mouse PBMC assessed as increase in ABCA1 mRNA expression at 10 uM incubated for 48 hrs by qPCR analysis"}, "[12]": {"molecular_target": "T2, Oxysterols receptor LXR-beta (Rattus norvegicus) (UniProt Q62755)", "T2 sequence (whole entry)": "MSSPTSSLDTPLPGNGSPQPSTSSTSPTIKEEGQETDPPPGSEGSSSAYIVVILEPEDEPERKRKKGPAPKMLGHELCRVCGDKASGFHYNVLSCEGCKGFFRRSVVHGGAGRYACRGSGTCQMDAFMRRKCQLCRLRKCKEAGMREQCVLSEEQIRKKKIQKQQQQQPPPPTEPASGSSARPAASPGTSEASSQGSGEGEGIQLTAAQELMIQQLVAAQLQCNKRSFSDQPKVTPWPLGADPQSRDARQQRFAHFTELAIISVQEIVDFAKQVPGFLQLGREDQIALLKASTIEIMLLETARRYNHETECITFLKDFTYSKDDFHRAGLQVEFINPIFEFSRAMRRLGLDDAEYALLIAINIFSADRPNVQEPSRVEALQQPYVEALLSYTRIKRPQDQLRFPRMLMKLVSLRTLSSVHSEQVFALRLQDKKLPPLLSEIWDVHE", "assay": "Agonist activity at rat LXRbeta transfected in HEK293T cells at 10 uM incubated for 20 hrs by luciferase reporter gene assay relative to control", "format": "cell-based"}, "HepG2 [13]": {"tested_on": "HepG2", "assay": "Effect on TG accumulation in human HepG2 cells at 10 uM incubated for 24 hrs", "format": "ADME, cell-based", "settings": "hepg2, 24 h"}, "[14]": {"molecular_target": "Liver X receptor (Homo sapiens) (UniProt Q13133+P55055)", "sequence (P55055 whole entry, looked up, one chain of several)": "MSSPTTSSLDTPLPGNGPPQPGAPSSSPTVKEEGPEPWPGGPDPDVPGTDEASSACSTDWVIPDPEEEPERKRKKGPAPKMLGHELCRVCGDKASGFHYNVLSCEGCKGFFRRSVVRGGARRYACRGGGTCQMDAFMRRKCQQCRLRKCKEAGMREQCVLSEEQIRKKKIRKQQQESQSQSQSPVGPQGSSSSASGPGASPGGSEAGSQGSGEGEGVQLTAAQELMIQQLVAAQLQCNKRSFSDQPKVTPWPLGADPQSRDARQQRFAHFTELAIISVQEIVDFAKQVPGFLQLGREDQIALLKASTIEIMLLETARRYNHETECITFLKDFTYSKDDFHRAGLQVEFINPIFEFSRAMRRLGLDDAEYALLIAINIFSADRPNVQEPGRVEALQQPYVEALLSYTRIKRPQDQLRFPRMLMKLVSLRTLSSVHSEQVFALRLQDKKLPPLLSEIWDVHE", "assay": "Agonist activity at LXR in human HepG2 cells assessed as increase in ABCA1 mRNA expression at 10 uM incubated for 24 hrs by qPCR analysis", "format": "cell-based"}, "HepG2 [15]": {"tested_on": "HepG2", "assay": "Lipid lowering activity in human HepG2 cells assessed as decrease in OA-induced TG accumulation at 10 uM incubated for 24 hrs", "format": "functional, cell-based"}, "HEK-293T": {"tested_on": "HEK-293T", "assay": "Cytotoxicity against HEK293T cells assessed as reduction in cell viability at […] incubated for 24 hrs by MTT assay", "format": "cell-based", "settings": "human"}},
  "note": "Calls of active or inactive are those of the source. The rule behind the calls is not given here.",
  "data": [
    {"compound": "O=S(=O)(c1ccccc1)N(CC(F)(F)F)c1ccc(C(O)(C(F)(F)F)C(F)(F)F)cc1", "note": "[T091317]", "values": [
      {"measurement": "Activity", "setting": "Mus musculus [1]", "result": "Toxic"},
      {"measurement": "Activity", "setting": "[2]", "result": "Toxic"},
      {"measurement": "Activity", "setting": "Mus musculus [3]", "result": "Toxic"},
      {"measurement": "Activity", "setting": "Mus musculus [4]", "result": "Toxic"}
    ]},
    {"compound": "O=C(O)Cc1cccc(OCCCN(Cc2cccc(C(F)(F)F)c2Cl)CC(c2ccccc2)c2ccccc2)c1", "values": [
      {"measurement": "Ratio", "setting": "[5]", "result": 1.11},
      {"measurement": "Activity", "setting": "[6]", "result": "Not Active"},
      {"measurement": "Activity", "setting": "[7]", "result": "Not Active"},
      {"measurement": "Activity", "setting": "[8]", "result": "Active"},
      {"measurement": "fold induction at 20 h, 10 µM", "setting": "[9]", "result": 2.19},
      {"measurement": "Activity", "setting": "[10]", "result": "Active"},
      {"measurement": "Activity", "setting": "Mus musculus [11]", "result": "Active"},
      {"measurement": "fold change (FC)", "setting": "[12]", "result": 2.42},
      {"measurement": "Activity", "setting": "HepG2 [13]", "result": "Toxic"},
      {"measurement": "Activity", "setting": "[14]", "result": "Active"},
      {"measurement": "Activity", "setting": "HepG2 [15]", "result": "inactive"}
    ]},
    {"compound": "CC(=O)O[C@H]1CC[C@@]2(C)C(=CC[C@H]3[C@@H]4CC[C@H]([C@H](C)CCC(=O)C(C)C)[C@@]4(C)CC[C@@H]32)C1", "values": [
      {"measurement": "Ratio", "setting": "[5]", "result": 1.14},
      {"measurement": "Activity", "setting": "HEK-293T", "result": "Non-Toxic"},
      {"measurement": "fold induction at 20 h, 10 µM", "setting": "[9]", "result": 2.63},
      {"measurement": "fold change (FC)", "setting": "[12]", "result": 3}
    ]}
  ]
}
